This is an account of results in patent US20220323376A1, “METHODS AND COMPOSITIONS FOR SENSITIZING CANCER CELLS TO DRUG-INDUCED APOPTOSIS” (New York University, priority 2019, published 2022).

Assay [1] has as its system human AML cell lines (MOLM-13, MV4-11, THP-1, KASUMI-1). In words: Venetoclax/drug IC50 by CellTiter-Glo in sgRNA-transduced AML cell lines. It counts as cell-based. Particulars: for Synergistic effect of CLPB ablation with the drug: MOLM-13 and MV4-11 with sgCLPB or sgRosa, 48 hrs. From the text: (§1) Drug Treatment and IC50 Measurements.
(ATP-based viability assays read luminescence as a measure of living cells.)

A further assay has as its system AML cells. In words: Cell death by Annexin V flow cytometry. It counts as cell-based, human. The protocol:
Cell Cycle and Apoptosis. To assess cell cycle, we performed the 5-ethynyl-2′-deoxyuridine (EdU) incorporation assay using the Click-iT Plus EdU Alexa Fluor 647 kit as described in manufacturer's protocol (Life Technologies). Apoptosis analysis was determined using APC Annexin V (BD Bioscience) and 4′,6-Diamidino-2-Phenylindole, Dihydrochloride (DAPI) for DNA content. Both EdU and Annexin V stained cells were analyzed by flow cytometry and FlowJo software.
A general note: A flow cytometer gives signals particle by particle.

The subject of assay [2] is AML cells (THP-1, MOLM-13). The assay can be described thus: Western blotting of AML cell lysates after drug treatment. It counts as cell-based, human. Particulars: for CLPB protein levels in cells surviving drug treatment: MOLM-13, Venetoclax (IC50) 10 days, Idarubicin 10 nM 2 days. How it is done: Biochemistry. Protein lysis was performed with RIPA buffer (Thermo Fisher Scientific) in presence of proteases inhibitor cocktail (PIC, Sigma) for 30 min at 4° C. After centrifugation at maximal speed for 20 min, supernatants were collected and protein concentration was determined using Bradford reagent (Bio-Rad).
Protein lysates (25-30 μg) were loaded onto 4%-12% Bis-Tris or 3%-8% Tris-acetate polyacrylamide gels (Thermo Fisher Scientific), transferred onto PVDF membranes (Millipore) and probed using the following antibodies: anti-CLPB polyclonal (1:2000, Proteintech, Cat #15743-1-AP), anti-TFAM (1:500, Santa Cruz, Cat #sc-376672), anti-OPA1 monoclonal (1:1000, BD Biosciences, Cat #612606), anti-SDHA monoclonal (1:2500, Abcam, Cat #ab14715), anti-HAX1 polyclonal (1:1000, Proteintech, Cat #11266-1-AP), anti-cytochrome c monoclonal (1:4000, Thermo Fisher Scientific, Cat #BDB556433), anti-caspase-3 monoclonal (1:1000, Proteintech, Cat #66470-2-Ig), anti-cleaved caspase-3 polyclonal (1:1000, Cell Signaling, Cat #9661S), anti-GRP75 monoclonal (1:1000, Santa Cruz, Cat #sc-133137), anti-TOM20 monoclonal (1:500, Santa Cruz, Cat #sc-17764), anti-p53 monoclonal (1:1000, Active Motif North America, Cat #39553), anti-BCL-2 polyclonal (1:200, R&D Systems, Cat #AF810-SP), anti-MCL1 polyclonal (1:1000, Proteintech, Cat #16225-1-AP), anti-BCL-XL monoclonal (1:500, R&D Systems, Cat #MAB894SP), anti-NOXA monoclonal (1:500, Abcam, Cat #ab13654), anti-GAPDH polyclonal (1:10000, Proteintech, Cat #10494-1-AP), anti-LAMIN A polyclonal (1:1000, Santa Cruz, Cat #sc-6214) and anti-ACTIN (1:10000, Millipore, Cat #MAB1501) antibodies. Isotype matched secondary antibodies were conjugated to horseradish peroxidase (GE Healthcare) and chemiluminescence was detected with ECL (Life Technologies) using films. Band densitometric analysis was performed using ImageJ (National Institutes of Health).
Background: A western blot detects proteins with antibodies after separation by electrophoresis.

The subject of assay [3] is human AML cell lines (MOLM-13, KASUMI-1). The assay can be described thus: IC50 curves of AMG176 in combination with Mdivi-1. In kind it is cell-based. The note with it: AML cells.
Another assay concerns AML patients. Particulars: cited from earlier work.
The subject of assay [4] is MOLM-13-Par or MOLM-13-VR xenografts. In words: MOLM-13 parental and VR xenografts in NSG mice, Venetoclax by oral gavage. It counts as in vivo, NOD SCID gamma (NSG) mice. The protocol:
Animal experiments. For in vivo experiments, Cas9 and luciferase-expressing parental and Venetoclax-resistant MOLM-13 cells were transduced with sgRosa or sgCLPB #1 constructs. At day 2 post-transduction, sgRNA positive cells (GFP) were sorted by FACS. 0.5 million sgRNA-expressing leukemia cells were intravenously injected into recipient NSG mice. For experiments that required drug administration, recipient mice were treated with vehicle or Venetoclax (100 mg/kg, Selleckchem) daily by oral gavage from day 6 to day 20. Venetoclax was prepared in 10% ethanol, 30% polyethyleneglycol-400 (Sigma), and 60% phosal 50 propylene glycol (Lipoid). Whole-body bioluminescent imaging was performed at indicated time points by intraperitoneally injection of Luciferin (Goldbio) at a 50 mg/kg concentration and imaging was performed after 5 mins using an IVIS imager. Bioluminescent signals (radiance) were quantified using Living Image software with standard regions of interests (ROI) rectangles. Peripheral blood of recipient NSG mice was collected at indicated time points after transplantation, and sgRNA positive cells (GFP+) were analyzed by flow cytometry. All animal experiments were performed in accordance with protocols approved by the New York University Institutional Animal Care and Use Committee (IACUC, ID: IA16-00008_TR1).
Animals. […]

Assay [5] concerns Venetoclax-resistant (VR) MOLM-13 and MV4-11 cells. In words: Venetoclax IC50 in parental versus Venetoclax-resistant (VR) AML cell lines. In kind it is cell-based, human. The protocol:
For the generation of the Venetoclax-resistant cell lines, MOLM-13 and MV4-11 were cultured in media containing increasing doses of Venetoclax (from 5 nM to 1000 nM) for more than 8 weeks to achieve complete resistance to the drug.
as §1

For assay [6], the system named is AML cells (THP-1 and MOLM-13). The assay can be described thus: Electron microscopy-based morphometric analysis of mitochondria. It counts as cell-based, human. Particulars: THP-1 4 μM, MOLM-13 17 nM, 16 hrs. How it is done:
Transmission Electron Microscopy. Cultured cells were fixed in 0.1M sodium cacodylate buffer (pH 7.4) containing 2.5% glutaraldehyde and 2% paraformaldehyde for 2 hrs and post-fixed with 1% osmium tetroxide and 1% potassium ferrocyanide for one hour at 4° C. Then block was stained in 0.25% aqueous uranyl acetate, processed in a standard manner and embedded in EMbed 812 (Electron Microscopy Sciences, Hatfield, Pa.). Ultrathin sections (60 nm) were cut, mounted on copper grids and stained with uranyl acetate and lead citrate. Stained grids were examined under Philips CM-12 electron microscope and photographed with a Gatan (4k×2.7k) digital camera. For morphometric analysis, maximal cristae width was measured using Image J (NIH) as shown in FIG. 4A in at least 50 randomly selected mitochondria from a minimum of 15 cells/experiment.

Assay [7] deals with AML cells (THP-1, MOLM-13, MV4-11). In words: Mitochondrial membrane potential by TMRM staining. The note with it: 16 hrs. In kind it is cell-based, human. The protocol:
Mitochondrial Membrane Potential. Mitochondrial membrane potential was monitored cytofluorimetrically using tetramethylrhodamine methyl ester (TMRM). Cells were loaded with 10 nM TMRM in presence of 2 μM Cyclosporin H in Hank's Balanced Salt Solution (HBSS) supplemented with 10 mM HEPES, 30 min at 37° C. When indicated, the experiments were performed in cells pre-treated with Venetoclax for 16 hours at the indicated concentrations.

For assay [8], the system named is mouse AML cell line RN2 (MLL-AF9; Kras).
Protocol: ZIP model was used to calculate the delta-score of synergisms of the combination treatments. […] ZIP model was used to calculate the delta-score of synergisms of the combination treatments. […] ZIP model was used to calculate the delta-score of synergisms of the combination treatments.
Drug Treatment and IC50 Measurements. Cells were plated in 96-well plates and exposed to Venetoclax at concentrations ranging from 0.4 nM to 300 nM (for MOLM-13 and MV4-11), 150 nM to 10 μM (for Venetoclax-resistant cell lines and THP-1) with a minimum of three technical replicates per concentration per cell line. Cell viability was measured with the CellTiter-Glo reagent (Promega) according to manufacturer's instructions. Absolute viability values were converted to percentage viability versus DMSO control treatment, and then non-linear fit of log(inhibitor) versus response (three parameters) was performed in GraphPad Prism v7.0 to obtain the IC50 values. For Venetoclax and Azacitidine combined treatment, two drugs were mixed at the fixed ratio (Ven:Aza=1:4) before diluting to certain concentrations.

Take `Nc1ccn([C@@H]2O[C@H](CO)[C@@H](O)[C@@H]2O)c(=O)n1` [Cytarabine, 4-amino-1-[(2R,3S,4S,5R)-3,4-dihydroxy-5-(hydroxymethyl)oxolan-2-yl]pyrimidin-2-one]: the “Synergistic effect of CLPB ablation with the drug” value in assay [1] is listed as “no synergistic effect”.
The same measure, in the same setting: under `Cc1sc2c(c1C)C(c1ccc(Cl)cc1)=N[C@@H](CC(=O)OC(C)(C)C)c1nnc(C)n1-2` [JQ-1] stands “no synergistic effect”.
In the case of `CO[C@H]1/C=C/C[C@H](C)[C@@H](C)S(=O)(=O)NC(=O)c2ccc3c(c2)N(C[C@@H]2CC[C@H]21)C[C@@]1(CCCc2cc(Cl)ccc21)CO3` [AMG176, (3′R,4S,6′R,7′S,8′E,11′S,12′R)-7-chloro-7′-methoxy-11′,12′-dimethyl-13′,13′-dioxospiro[2,3-dihydro-1H-naphthalene-4,22′-20-oxa-13λ6-thia-1,14-diazatetracyclo[14.7.2.03,6.019,24]pentacosa-8,16(25),17,19(24)-tetraene]-15′-one], the “Apoptosis induced by AMG176 upon CLPB depletion” value in the assay with AML cells (MOLM-13 and KASUMI-1 with sgCLPB, 22 hrs) is given as “enhances the apoptosis”.
With `CC(=O)[C@]1(O)Cc2c(O)c3c(c(O)c2[C@@H](O[C@H]2C[C@H](N)[C@H](O)[C@H](C)O2)C1)C(=O)c1ccccc1C3=O` [Idarubicin, (7S,9S)-9-acetyl-7-{[(2R,4S,5S,6S)-4-amino-5-hydroxy-6-methyloxan-2-yl]oxy}-6,9,11-trihydroxy-5,7,8,9,10,12-hexahydrotetracene-5,12-dione], the “CLPB protein levels in cells surviving drug treatment” value in assay [2] is listed as “did not lead to increase of CLPB protein levels”. In assay [1], the “Synergistic effect of CLPB ablation with the drug” value was “no synergistic effect”.
Consider `COc1cc(-n2c(=S)[nH]c3ccccc3c2=O)c(Cl)cc1Cl` [Mdivi-1, 3-(2,4-dichloro-5-methoxyphenyl)-2-sulfanylidene-1H-quinazolin-4-one], for which, in assay [3], the “Combination effect with AMG176” value was “synergistic effects with AMG176”.
In the case of `CC1(C)CCC(CN2CCN(c3ccc(C(=O)NS(=O)(=O)c4ccc(NCC5CCOCC5)c([N+](=O)[O-])c4)c(Oc4cnc5[nH]ccc5c4)c3)CC2)=C(c2ccc(Cl)cc2)C1` [Venetoclax, 4-[4-[[2-(4-chlorophenyl)-4,4-dimethylcyclohexen-1-yl]methyl]piperazin-1-yl]-N-[3-nitro-4-(oxan-4-ylmethylamino)phenyl]sulfonyl-2-(1H-pyrrolo[2,3-b]pyridin-5-yloxy)benzamide], the “Cell death by Annexin-V staining” value with AML cells (AML cells, 16 hrs) is “cell death”. Also, the “Cell death induced by Venetoclax upon depletion of OPA1” value in the assay on AML cells (THP-1, 4 μM, 16 hrs) was “enhances cell death”. For the same molecule, the “Annexin-V cell death in cells transduced with sgRNAs targeting CLPB versus negative controls” value in the assay on AML cells (puromycin-selected AML cells, 16 hrs) is listed as “hypersensitivity of these cells to Venetoclax”. In the assay with AML patients (Venetoclax with hypomethylating agents or low dose cytarabine), the “Patients that do not respond upfront” value was “approximately 30%”. Also, in the assay with AML patients (monotherapy), the “Response rates, single-agent Venetoclax in AML” value is “modest and rather short-lived”. In [4] (100 mg/kg daily oral gavage day 6 to day 20), the “Synergy of CLPB deletion with Venetoclax in vivo (bioluminescence, circulating GFP+ leukemic cells)” value is “synergizes efficiently with Venetoclax in both Venetoclax-sensitive and resistant xenografts”. For the same molecule, the “CLPB and OPA1 protein levels in wild-type tumors at late stages versus vehicle-treated mice” value in assay [4] (sorted GFP+ sgRosa leukemia cells from bone marrow) was “significantly elevated CLPB and OPA1 protein levels”. Besides, the “Caspase-3 activation in AML cells lacking CLPB relative to wild-type” value in [2] (MOLM-13 35 nM, THP-1 4 μM, 16 hrs) is given as “prevalent caspase-3 activation”. Further, the “CLPB protein levels in cells surviving drug treatment” value in [2] was “significant increase in the CLPB protein”. For the same molecule, in assay [2] (THP-1, 4 μM, 16 hrs), the Caspase-3 cleavage result is “caspase activation”; the “OPA1 long and short forms (western blot)” value is “decrease in the long (L-OPA1) forms and accumulation of short (S-OPA1) forms of OPA1”. Also, in assay [5] (MOLM-13 and MV4-11 VR versus parental), the “Increase of Venetoclax concentration required for the 50% cell death in VR cell lines in respect to the original clones (Par.)” value is “more than 100 fold”. In addition, in assay [5] (VR MOLM-13 and MV4-11 with CLPB sgRNAs), the “Sensitivity of VR cells to Venetoclax upon ablation of CLPB” value is “significantly re-sensitized VR cells”. In addition, in assay [6], the “Mitochondrial ultrastructure after treatment” value is “abnormal ultrastructure after Venetoclax treatment, characterized by a lower number of cristae and increase of the cristae lumen width”. In [7] (AML cells lacking CLPB versus control), the “Mitochondrial depolarization in CLPB-knockout cells (TMRM)” value was “more prone to Venetoclax-induced mitochondrial depolarization”. Besides, the “Mitochondrial membrane potential (TMRM)” value in [7] (THP-1 4 μM, MOLM-13 35 nM) is “depolarization of mitochondria”. Further, the “Venetoclax IC50 upon CLPB depletion” value in assay [1] (CLPB sgRNAs versus sgRosa, all the cell lines tested, 48 hours) is “significantly reduced the IC50”. In [1] (KASUMI-1 and MOLM-13 cells, 48 hours, Cell-TiterGlo), the “Venetoclax half maximal inhibitory concentration (IC50) upon deletion of BAX and PMAIP1” value is recorded as “significant increase”. Also, in [1] (p53-KO clones B10 and B11, sgCLPB #1, 48 hours), the “Sensitivity of p53-deficient MOLM-13 to Venetoclax upon CLPB depletion” value is “fully re-sensitize p53-deficient MOLM-13 to Venetoclax treatment”. In [1] (p53 wild-type MOLM-13 and p53-mutant KASUMI-1, 48 hours), the “Venetoclax IC50 with TP53 sgRNAs” value is listed as “increased the Venetoclax IC50 in p53 wild-type MOLM-13 but not p53-mutant KASUMI-1”.
`CCN(CC)CCCC(C)Nc1ccnc2cc(Cl)ccc12` (stereo not drawn) [Chloroquine, N′-(7-chloroquinolin-4-yl)-N,N-diethylpentane-1,4-diamine]: the “IC50 of chloroquine upon addition of Venetoclax plus Azacitidine” value in assay [8] is reported as “vice versa”.
